According to patent US20160002250A1, “POLYMORPHS AND SALTS OF A COMPOUND” (FORUM Pharmaceuticals Inc., priority 2013, published 2016):
Values after ≈ are worked out from the molar mass of the structure shown. “Also recorded” adds a separate entry of the source. Marks after values point to notes of the source that are not given here.

Key:
[1] = Six-week stability study (elevated humidity, 60° C., room conditions); assay type: physicochemical
Description: The stability to elevated humidity and air oxidation was investigated for both Form 1 and Form 2 of the Free Base. Samples of both materials were stored at 40° C./75% RH, 25° C./96% RH, 60° C. in contact with air and ambient conditions (25° C. in contact with air) for six weeks, and analyses by XRPD, HPLC and ^1H-NMR (for oxidation study samples only) were carried out weekly.

[2] = Thermodynamic aqueous solubility; conditions: for solubility thermodynamic at 24 h: 25 °C, thermodynamic from solid
Description: The suspension was equilibrated at 25° C. for 24 hours then the pH was measured and adjusted with either HCl or NaOH if it deviated by more than 0.3 units from the target pH. The suspension was then filtered through a glass fiber C filter. […] Different volumes of the standard, diluted and undiluted sample solutions were injected.
Analysis was performed on an Agilent HP1100 series system equipped with a diode array detector and using ChemStation software. The following buffers were prepared to carry out the solubility analyses:
pH 1.2—made up by adding 85.0 mL of 0.2M HCl(aq) to 50 mL of 0.2M KCl(aq) and making up to 200 mL. pH 4.5—made up by adding 2.99 g of NaC2H3O2.3H2O to 14.0 mL of 2N AcOH(aq) and making up to 1000 mL. pH 7.4—made up adding 39.1 mL of 0.2M NaOH(aq) to 50.0 mL of a 0.2M KH2PO4 and making up to 200 mL.

[3] = Solubility in solvents, slow cooling and evaporation experiments; assay type: physicochemical; conditions: 50° C.
Description: 4-(4-(imidazo[1,2-b]pyridazin-2-ylmethoxy)phenyl)-2,2-dimethyl-5-(pyridin-4-yl)furan-3(2H)-one (Form 2 or Form 1; ca. 10 mg per experiment) was weighed into vials, and the stated solvents were added, in increasing portions at 50° C. With each addition, the vials were allowed to shake for ˜20 minutes. Any solutions observed were allowed to cool to room temperature. Those experiments that remained as solutions were pin-holed to allow the solvent to slowly evaporate. Any suspensions observed were subjected to heat/cool cycles, between room temperature and 50° C., four hours at each condition.

[4] = Gravimetric Vapour Sorption (GVS); assay type: physicochemical
Description: Sorption isotherms were obtained using a SMS DVS Intrinsic moisture sorption analyzer, controlled by DVS Intrinsic Control software v1.0.0.30. The sample temperature was maintained at 25° C. by the instrument controls. The humidity was controlled by mixing streams of dry and wet nitrogen, with a total flow rate of 200 ml/min. The relative humidity was measured by a calibrated Rotronic probe (dynamic range of 1.0-100% RH), located near the sample. The weight change, (mass relaxation) of the sample as a function of % RH was constantly monitored by the microbalance (accuracy ±0.005 mg).
Typically 5-30 mg of sample was placed in a tared mesh stainless steel basket under ambient conditions. The sample was loaded and unloaded at 40% relative humidity (RH) and 25° C. (typical room conditions). A moisture sorption isotherm was performed as outlined below in Table 4 (2 scans giving 1 complete cycle). The standard isotherm was performed at 25° C. at 10% RH intervals over a 0-90% RH range. Data analysis was undertaken in Microsoft Excel using DVS Analysis Suite. The sample was recovered after completion of the isotherm and re-analyzed by XRPD.

[5] = Storage at elevated humidity; assay type: physicochemical; conditions: 40° C./75% RH, one week
Description: Samples were place on a glass slide and sealed in an airtight plastic container, along with an open beaker of saturated aqueous salt solution, and stored at a known regulated temperature. A saturated solution of NaCl was used to obtain a relative humidity of 75% at 40° C., whilst a saturated solution of potassium nitrate was used to provide 92% RH at 25° C.

CC1(C)OC(c2ccncc2)=C(c2ccc(OCc3cn4ncccc4n3)cc2)C1=O [Form 2, 4-(4-(imidazo[1,2-b]pyridazin-2-ylmethoxy)phenyl)-2,2-dimethyl-5-(pyridin-4-yl)furan-3(2H)-one]
Purity (area %) ([1]; 25° C./96% RH, Week 1): 99.3 area %
Purity (area %) ([1]; 25° C./96% RH, Week 2): 98.9 area %
Purity (area %) ([1]; 25° C./96% RH, Week 3): 98.9 area %
Purity (area %) ([1]; 25° C./96% RH, Week 4): 98.9 area %
Purity (area %) ([1]; 25° C./96% RH, Week 5, samples run after 24 hours in solution): 98.0* area %
Purity (area %) ([1]; 25° C./96% RH, Week 6): 98.9 area %
Stability to elevated humidity and air oxidation ([1]; 40° C./75% RH, 25° C./96% RH, 60° C. and ambient conditions, six weeks, XRPD, HPLC, 1H-NMR): No significant changes; also recorded: no significant degradation
Purity (area %) ([1]; 40° C./75% RH, Week 1): 99.5 area %
Purity (area %) ([1]; 40° C./75% RH, Week 2): 99.1 area %
Purity (area %) ([1]; 40° C./75% RH, Week 3): 99.2 area %
Purity (area %) ([1]; 40° C./75% RH, Week 4): 99.1 area %
Purity (area %) ([1]; 40° C./75% RH, Week 5, samples run after 24 hours in solution): 98.8* area %
Purity (area %) ([1]; 40° C./75% RH, Week 6): 98.9 area %
Purity (area %) ([1]; 60° C., Week 1): 98.9 area %
Purity (area %) ([1]; 60° C., Week 2): 99.1 area %
1H-NMR ([1]; 60° C., Week 4): Very weak
Purity (area %) ([1]; 60° C., Week 4): 99.0 area %
Purity (area %) ([1]; 60° C., Week 5, samples run after 24 hours in solution): 98.6* area %
Purity (area %) ([1]; 60° C., Week 6): 99.0 area %
Purity (area %) ([1]; Room conditions, Week 1): 99.2 area %
Purity (area %) ([1]; Room conditions, Week 2): 98.6 area %
Purity (area %) ([1]; Room conditions, Week 4): 98.6 area %
Purity (area %) ([1]; Room conditions, Week 5, samples run after 24 hours in solution): 98.2* area %
Purity (area %) ([1]; Room conditions, Week 6): 98.2 area %
Stability at 60° C. in contact with air ([1]; after 6 weeks, XRPD and HPLC): No significant changes by XRPD or HPLC analyses after
Stability at room conditions (25° C. in contact with air) ([1]; after 6 weeks, XRPD and HPLC): No significant changes by XRPD or HPLC analyses after
Stability at 25° C./96% RH ([1]; after 6 weeks, XRPD and purity): No significant changes by XRPD or purity after 6 weeks
Stability at 40° C./75% RH ([1]; after 6 weeks, XRPD and purity): No significant changes by XRPD or purity after 6 weeks
Stability to humidity ([1]; elevated humidity and temperature conditions, after 6 weeks): No changes observed at elevated
pH of saturated unfiltered solution ([2]; DI water): 7.23
solubility thermodynamic at 24 h ([2]; deionized water, water, DI water, 24 hours): 40 µg/mL (≈ 97 µM)
thermodynamic aqueous solubility ([2]; deionized water, at pH 7.67 (Form 1), pH 7.23 (Form 2)): about 0.04 mg/ml
pH of saturated unfiltered solution ([2]; pH 1.2 buffer): 1.73
solubility thermodynamic at 24 h ([2]; pH 1.2 buffer, pH 1.2, simulated gastric fluid, 24 hours): 37800 µg/mL (≈ 91600 µM)
pH of saturated unfiltered solution ([2]; pH 4.5 buffer): 4.65
solubility thermodynamic at 24 h ([2]; pH 4.5 buffer, pH 4.5, aqueous buffer, 24 hours): 50 µg/mL (≈ 121 µM)
pH of saturated unfiltered solution ([2]; pH 7.4 buffer): 7.46
Thermodynamic solubility ([2]; pH 7.4 buffer, 25° C., 24 hours): 0.04 mg/mL
Solubility (volumes) ([3]; BuOAc, 50 volumes): Almost
Solubility (volumes) ([3]; BuOAc, 100 volumes): Almost
Solubility (volumes) ([3]; Ethanol, 50 volumes): Almost
Solubility (volumes) ([3]; IPA, 50 volumes): Almost
Solubility (volumes) ([3]; IPA, 100 volumes): Almost
Solubility (volumes) ([3]; IPAc, 50 volumes): Almost
Solubility (volumes) ([3]; IPAc, 100 volumes): Almost
Solubility (volumes) ([3]; MEK, 20 volumes): Almost
Solubility (volumes) ([3]; MIBK, 50 volumes): Almost
Solubility (volumes) ([3]; MIBK, 100 volumes): Almost
Solubility (volumes) ([3]; MeCN/H2O, 10 volumes): Almost
Solubility (volumes) ([3]; Methanol, 10 volumes): Almost
Solubility (volumes) ([3]; Nitromethane, 10 volumes): Almost
Solubility (volumes) ([3]; Toluene, 50 volumes): Almost

CC1(C)OC(c2ccncc2)=C(c2ccc(OCc3cn4ncccc4n3)cc2)C1=O.Cc1ccc(S(=O)(=O)O)cc1.Cc1ccc(S(=O)(=O)O)cc1 [bis-tosylate]
Form change by XRPD during GVS ([4]; RH 0% to 90%): no accompanying form change
GVS water uptake (% of mass) ([4]; RH from 0% to 90%, 25° C.): 3.1%
Solubility (mg mL free form equivalent) ([2]; pH point 1.2): 32.29 mg mL free form equivalent
pH of unfiltered saturated solution ([2]; pH point 1.2): 1.21
Solubility (mg mL free form equivalent) ([2]; pH point 4.5): 0.05 mg mL free form equivalent
pH of unfiltered saturated solution ([2]; pH point 4.5): 4.52
Solubility (mg mL free form equivalent) ([2]; pH point 7.4): 0.05 mg mL free form equivalent
pH of unfiltered saturated solution ([2]; pH point 7.4): 7.40
Solubility (mg mL free form equivalent) ([2]; pH point unadjusted aqueous): 29.07 mg mL free form equivalent
pH of unfiltered saturated solution ([2]; pH point unadjusted aqueous): 2.00
Form change on storage [5]: no form change
